According to US12195439B1, “C1-substituted isopropylamine fused heterocyclic mescaline derivatives” (Enveric Biosciences Canada Inc., priority 2022, dated 2025):
Like-named read-outs stand apart in the source and are kept apart here.

Experiments:
alpha2A receptor = target: T1, alpha2A receptor (Homo sapiens, UniProt P08913); test: Eurofins Cerep competition binding assay at alpha2A receptor; conditions: 10 μM test ligand, [3H]RX 821002, recombinant receptor from CHO cells; for inhibition at 10 µM: read-out: α-2A, percent of control-specific binding
T1 construct: host or cells: CHO cells (membrane preparation)
T1 sequence (P08913 1-465): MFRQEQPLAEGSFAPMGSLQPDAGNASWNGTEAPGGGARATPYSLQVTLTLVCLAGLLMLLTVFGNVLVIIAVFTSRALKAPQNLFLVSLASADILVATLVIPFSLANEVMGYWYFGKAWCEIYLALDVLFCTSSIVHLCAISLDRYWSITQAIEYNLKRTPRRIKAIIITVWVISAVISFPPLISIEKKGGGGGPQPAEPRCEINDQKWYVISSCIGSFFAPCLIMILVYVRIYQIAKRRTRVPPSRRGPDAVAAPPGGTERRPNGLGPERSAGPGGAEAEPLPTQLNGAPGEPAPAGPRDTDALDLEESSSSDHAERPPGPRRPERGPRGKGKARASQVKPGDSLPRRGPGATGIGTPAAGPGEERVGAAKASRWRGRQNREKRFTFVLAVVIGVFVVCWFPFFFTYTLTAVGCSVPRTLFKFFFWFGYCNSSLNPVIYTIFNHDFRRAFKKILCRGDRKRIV

5-HT2A receptor = target: T2, 5-HT2A receptor (Homo sapiens, UniProt P28223); test: biochemical; type: binding; conditions: competition with 1 nM [3H]ketanserin, membranes containing 5-HT2A, SPA
T2 construct: purchased PerkinElmer ES-313-M400UA

5-HT2C receptor = target: T3, 5-HT2C receptor (Homo sapiens, UniProt P28335); test: Eurofins Cerep competition binding assay at 5-HT2C receptor; conditions: 10 μM test ligand, [125I](±)DOI, recombinant receptor from HEK-293 cells; for inhibition at 10 µM: read-out: HT2C, percent of control-specific binding
T3 construct: host or cells: HEK-293 cells (membrane preparation)
T3 sequence (P28335 33-458): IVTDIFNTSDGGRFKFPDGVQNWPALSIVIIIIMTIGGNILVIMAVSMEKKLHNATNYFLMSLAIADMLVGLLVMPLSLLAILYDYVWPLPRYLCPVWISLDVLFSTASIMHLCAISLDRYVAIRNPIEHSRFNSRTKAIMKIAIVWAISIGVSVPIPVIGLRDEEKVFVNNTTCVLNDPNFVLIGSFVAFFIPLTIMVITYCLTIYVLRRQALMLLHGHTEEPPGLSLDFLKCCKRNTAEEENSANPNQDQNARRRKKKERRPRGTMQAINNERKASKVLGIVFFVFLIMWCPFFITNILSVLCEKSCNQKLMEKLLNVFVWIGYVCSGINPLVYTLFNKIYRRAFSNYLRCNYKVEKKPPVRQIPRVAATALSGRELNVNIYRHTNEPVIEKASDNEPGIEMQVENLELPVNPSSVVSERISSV

[1] = target: T4, serotonin transporter (SERT) (Homo sapiens, UniProt P31645); test: biochemical; type: binding; conditions: for inhibition at 10 µM: read-out: SERT, percent of control-specific binding
T4 construct: host or cells: CHO cells (membrane preparation)

5-HT7 receptor = target: T5, 5-HT7 receptor (Homo sapiens, UniProt P34969); test: Eurofins Cerep competition binding assay at 5-HT7 receptor; conditions: 10 μM test ligand, [3H]LSD, recombinant receptor from HEK-293 cells; for inhibition at 10 µM: read-out: HT7, percent of control-specific binding
T5 construct: host or cells: HEK-293 cells (membrane preparation)

5-HT1A receptor [2] = target: T6, 5-HT1A receptor (Homo sapiens, UniProt P08908); test: 5-HT1A receptor radioligand competition assay (SPA); type: binding; conditions: 5-HT1A, Ki, competition with 0.5 nM [3H]8-hydroxy-DPAT, membranes containing 5-HT1A
T6 construct: purchased Perkin Elmer 6110501400UA
T6 sequence (P08908 1-422): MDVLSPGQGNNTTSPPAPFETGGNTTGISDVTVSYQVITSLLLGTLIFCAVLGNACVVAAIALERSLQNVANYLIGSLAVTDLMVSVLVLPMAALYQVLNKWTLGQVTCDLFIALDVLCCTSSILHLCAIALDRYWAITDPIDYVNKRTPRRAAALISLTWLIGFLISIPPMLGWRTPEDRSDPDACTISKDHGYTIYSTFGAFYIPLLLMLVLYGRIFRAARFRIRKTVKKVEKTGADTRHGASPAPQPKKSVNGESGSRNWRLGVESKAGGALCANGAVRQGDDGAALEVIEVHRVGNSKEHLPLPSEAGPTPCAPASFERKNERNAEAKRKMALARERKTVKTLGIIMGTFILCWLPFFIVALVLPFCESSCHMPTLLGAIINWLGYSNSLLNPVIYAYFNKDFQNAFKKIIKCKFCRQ

5-HT1A receptor [3] = target: T6, 5-HT1A receptor; test: Eurofins Cerep competition binding assay at 5-HT1A receptor; conditions: 10 μM test ligand, [3H]8-OH-DPAT, recombinant receptor from HEK-293 cells; for inhibition at 10 µM: read-out: HT1A, percent of control-specific binding
[4] = target: T7, dopamine transporter (DAT) (Homo sapiens, UniProt Q01959); test: Eurofins Cerep competition binding assay at dopamine transporter; conditions: for inhibition at 10 µM: read-out: DAT, percent of control-specific binding, 10 μM test ligand, [3H]BTCP, recombinant transporter from CHO cells
T7 construct: host or cells: CHO cells (membrane preparation)

5-HT2B receptor = target: T8, 5-HT2B receptor (Homo sapiens, UniProt P41595); test: Eurofins Cerep competition binding assay at 5-HT2B receptor; conditions: 10 μM test ligand, [3H]mesulergine, recombinant receptor from CHO cells; for inhibition at 10 µM: read-out: HT2B, percent of control-specific binding
T8 construct: host or cells: CHO cells (membrane preparation)

MT1 receptor = target: T9, MT1 receptor (Homo sapiens, UniProt P48039); test: Eurofins Cerep competition binding assay at MT1 receptor; conditions: for inhibition at 10 µM: read-out: MT1, percent of control-specific binding, 10 μM test ligand, [125I]2-iodomelatonin, recombinant receptor from CHO cells; for MT1, percent of control-specific binding: 10 μM test ligand, [125I]2-iodomelatonin, recombinant receptor from CHO cells
T9 construct: host or cells: CHO cells (membrane preparation)

[5] = target: T10, norepinephrine transporter (NET) (Homo sapiens, UniProt P23975); test: Eurofins Cerep competition binding assay at norepinephrine transporter; conditions: for inhibition at 10 µM: read-out: NET, percent of control-specific binding, 10 μM test ligand, [3H]nisoxetine, recombinant transporter from CHO cells
T10 construct: host or cells: CHO cells (membrane preparation)

5-HT1A receptor [6] = target: T6, 5-HT1A receptor; test: 5-HT1A receptor functional cellular response (cAMP) assay; type: cell-based

T5 sequence (P34969 whole entry): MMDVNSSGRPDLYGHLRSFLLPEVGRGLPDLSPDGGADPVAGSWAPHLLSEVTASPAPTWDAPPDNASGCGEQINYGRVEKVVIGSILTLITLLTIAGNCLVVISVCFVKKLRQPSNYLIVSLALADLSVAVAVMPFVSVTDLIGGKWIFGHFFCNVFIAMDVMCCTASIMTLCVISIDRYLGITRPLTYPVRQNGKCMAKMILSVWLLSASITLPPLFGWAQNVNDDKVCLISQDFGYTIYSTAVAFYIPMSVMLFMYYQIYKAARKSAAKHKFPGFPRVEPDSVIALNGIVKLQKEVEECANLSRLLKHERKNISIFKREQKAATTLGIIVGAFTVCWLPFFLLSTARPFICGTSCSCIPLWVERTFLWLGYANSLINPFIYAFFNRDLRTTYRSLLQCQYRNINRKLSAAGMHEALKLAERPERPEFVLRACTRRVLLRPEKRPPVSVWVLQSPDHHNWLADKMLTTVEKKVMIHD
T4 sequence (P31645 whole entry): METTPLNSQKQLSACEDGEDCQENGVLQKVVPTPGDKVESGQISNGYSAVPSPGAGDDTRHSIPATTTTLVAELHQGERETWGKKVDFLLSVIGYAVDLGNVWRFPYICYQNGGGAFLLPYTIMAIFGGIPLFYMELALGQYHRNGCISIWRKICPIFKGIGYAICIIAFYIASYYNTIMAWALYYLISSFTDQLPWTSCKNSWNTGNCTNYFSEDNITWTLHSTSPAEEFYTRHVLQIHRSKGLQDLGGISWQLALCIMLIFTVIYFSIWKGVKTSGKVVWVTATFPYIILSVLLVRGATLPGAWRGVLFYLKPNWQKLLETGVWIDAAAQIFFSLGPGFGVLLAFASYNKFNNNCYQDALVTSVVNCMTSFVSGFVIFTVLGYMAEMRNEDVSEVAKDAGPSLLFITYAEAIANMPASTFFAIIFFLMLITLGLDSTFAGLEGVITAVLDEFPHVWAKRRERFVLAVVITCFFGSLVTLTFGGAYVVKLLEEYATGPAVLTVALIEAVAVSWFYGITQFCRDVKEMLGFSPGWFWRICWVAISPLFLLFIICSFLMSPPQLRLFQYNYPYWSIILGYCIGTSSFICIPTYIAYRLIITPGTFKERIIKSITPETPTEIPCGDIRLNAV
T2 sequence (P28223 whole entry): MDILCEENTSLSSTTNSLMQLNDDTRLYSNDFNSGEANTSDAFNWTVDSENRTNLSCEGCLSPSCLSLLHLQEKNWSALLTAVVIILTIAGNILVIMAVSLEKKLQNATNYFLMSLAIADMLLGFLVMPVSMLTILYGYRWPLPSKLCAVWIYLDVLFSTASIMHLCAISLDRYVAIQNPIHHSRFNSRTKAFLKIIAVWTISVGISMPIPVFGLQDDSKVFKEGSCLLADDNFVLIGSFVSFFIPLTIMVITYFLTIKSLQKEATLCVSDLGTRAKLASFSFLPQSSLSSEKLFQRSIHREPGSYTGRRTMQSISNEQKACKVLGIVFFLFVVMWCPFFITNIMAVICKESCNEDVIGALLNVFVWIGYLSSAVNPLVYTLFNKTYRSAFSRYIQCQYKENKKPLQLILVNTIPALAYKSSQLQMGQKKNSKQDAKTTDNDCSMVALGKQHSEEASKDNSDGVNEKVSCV
T8 sequence (P41595 whole entry): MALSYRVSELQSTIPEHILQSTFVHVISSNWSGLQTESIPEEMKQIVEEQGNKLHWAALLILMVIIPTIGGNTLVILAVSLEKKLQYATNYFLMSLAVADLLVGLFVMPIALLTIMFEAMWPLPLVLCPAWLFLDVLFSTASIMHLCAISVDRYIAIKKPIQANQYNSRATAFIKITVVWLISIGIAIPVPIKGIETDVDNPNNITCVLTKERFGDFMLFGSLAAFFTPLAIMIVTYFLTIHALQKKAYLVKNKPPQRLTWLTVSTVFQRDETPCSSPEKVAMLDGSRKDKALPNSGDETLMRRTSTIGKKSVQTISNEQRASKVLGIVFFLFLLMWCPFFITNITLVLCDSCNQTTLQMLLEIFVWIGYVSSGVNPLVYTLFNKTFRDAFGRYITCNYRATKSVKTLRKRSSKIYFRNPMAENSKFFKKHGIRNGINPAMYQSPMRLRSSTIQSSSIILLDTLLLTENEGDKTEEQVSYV
T9 sequence (P48039 whole entry): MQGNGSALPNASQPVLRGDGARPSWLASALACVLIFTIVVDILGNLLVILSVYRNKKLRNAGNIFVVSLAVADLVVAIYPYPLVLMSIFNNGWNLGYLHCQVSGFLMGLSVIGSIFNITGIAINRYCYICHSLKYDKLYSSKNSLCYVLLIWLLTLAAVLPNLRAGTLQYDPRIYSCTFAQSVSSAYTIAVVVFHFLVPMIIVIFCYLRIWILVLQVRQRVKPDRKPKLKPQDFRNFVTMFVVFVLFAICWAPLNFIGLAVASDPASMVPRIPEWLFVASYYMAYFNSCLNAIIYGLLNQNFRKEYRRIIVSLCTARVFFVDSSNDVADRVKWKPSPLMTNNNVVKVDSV
T7 sequence (Q01959 whole entry): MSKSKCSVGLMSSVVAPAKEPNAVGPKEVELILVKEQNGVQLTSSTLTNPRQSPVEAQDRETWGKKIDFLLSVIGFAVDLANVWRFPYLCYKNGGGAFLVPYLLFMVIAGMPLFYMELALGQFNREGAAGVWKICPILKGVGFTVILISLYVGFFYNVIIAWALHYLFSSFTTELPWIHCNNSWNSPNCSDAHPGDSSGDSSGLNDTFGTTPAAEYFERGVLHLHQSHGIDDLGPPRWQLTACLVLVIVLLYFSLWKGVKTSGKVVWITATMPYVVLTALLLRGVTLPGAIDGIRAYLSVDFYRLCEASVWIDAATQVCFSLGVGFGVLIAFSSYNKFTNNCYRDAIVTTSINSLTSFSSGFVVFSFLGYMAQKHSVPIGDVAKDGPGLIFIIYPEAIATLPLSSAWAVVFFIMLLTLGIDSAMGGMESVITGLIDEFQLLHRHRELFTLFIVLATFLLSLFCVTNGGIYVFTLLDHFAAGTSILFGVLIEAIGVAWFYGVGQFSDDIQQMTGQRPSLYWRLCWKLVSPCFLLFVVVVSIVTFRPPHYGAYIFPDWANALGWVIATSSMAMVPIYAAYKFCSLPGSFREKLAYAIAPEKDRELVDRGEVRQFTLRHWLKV
T10 sequence (P23975 whole entry): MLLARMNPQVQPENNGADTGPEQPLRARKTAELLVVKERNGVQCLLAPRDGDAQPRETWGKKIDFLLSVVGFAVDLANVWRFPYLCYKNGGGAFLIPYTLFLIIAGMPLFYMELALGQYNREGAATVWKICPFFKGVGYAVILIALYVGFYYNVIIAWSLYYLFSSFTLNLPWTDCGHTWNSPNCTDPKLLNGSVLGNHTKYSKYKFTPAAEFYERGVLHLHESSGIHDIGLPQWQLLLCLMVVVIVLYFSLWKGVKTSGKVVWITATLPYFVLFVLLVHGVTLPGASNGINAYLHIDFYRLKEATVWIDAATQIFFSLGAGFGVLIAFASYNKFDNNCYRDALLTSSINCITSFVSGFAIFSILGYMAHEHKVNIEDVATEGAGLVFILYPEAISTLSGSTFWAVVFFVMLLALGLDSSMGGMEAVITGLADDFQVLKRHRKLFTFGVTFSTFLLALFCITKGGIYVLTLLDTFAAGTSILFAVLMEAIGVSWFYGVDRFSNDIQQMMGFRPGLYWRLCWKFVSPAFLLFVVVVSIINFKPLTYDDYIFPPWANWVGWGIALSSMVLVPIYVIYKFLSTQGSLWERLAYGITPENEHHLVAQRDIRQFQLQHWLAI

Row | Structure (SMILES) | inhibition at 10 µM (alpha2A receptor) | Ki (5-HT2A receptor) | inhibition at 10 µM (5-HT2C receptor) | inhibition at 10 µM [1] | inhibition at 10 µM (5-HT7 receptor) | Ki (5-HT1A receptor [2]) | inhibition at 10 µM (5-HT1A receptor [3]) | inhibition at 10 µM [4] | inhibition at 10 µM (5-HT2B receptor) | inhibition at 10 µM (MT1 receptor) | inhibition at 10 µM [5] | EC50 (5-HT1A receptor [6]) | other results
1 | CC(C(=O)c1ccc2c(c1)OCO2)N1CCCC1 (racemic) [A(I)] | 24% | 131 µM | 45% | 25% | 3% | 2 µM | 73% | 95% | 19% | 5% | 59% |  | 
2 | CC(C(=O)c1ccc2c(c1)OCO2)N(C)Cc1ccccc1 (racemic) [A(III)] | 42% | 53 µM | 7% | 5% | 0% | 49 µM | 4% | 74% | 32% | 77% | 38% | > 1000 µM | 
3 | CC(C(O)c1ccc2c(c1)OCO2)N(C)Cc1ccccc1 (single isomer, unassigned) [B(III) as diast. (iii)] |  | 44 µM |  | 58% |  | 110 µM |  | 75% |  |  | 42% |  | α-2A, percent of control-specific binding (alpha2A receptor; 10 µM): 7%; HT2C, percent of control-specific binding (5-HT2C receptor; 10 µM): 5%; HT7, percent of control-specific binding (5-HT7 receptor; 10 µM): 10%; HT1A, percent of control-specific binding (5-HT1A receptor [3]; 10 µM): 0%; HT2B, percent of control-specific binding (5-HT2B receptor; 10 µM): 3%; MT1, percent of control-specific binding (MT1 receptor; 10 µM): 0%
4 | CNC(C)C(F)c1ccc2c(c1)OCO2 (single isomer, unassigned) [D(II) as diast. (vi)] |  |  |  |  |  | 6 µM |  |  |  |  |  | > 1000 µM | 
5 | CC(C(F)c1ccc2c(c1)OCO2)N(C)Cc1ccccc1 (single isomer, unassigned) [D(III) as diast. (vii)] | 86% |  | 36% | 35% | 60% | 11.3 µM | 36% | 69% | 29% | 23% | 50% | 156 µM | 
6 | C[C@@H]([C@H](F)c1ccc2c(c1)OCO2)N(C)Cc1ccccc1 [D(III) as diast. (vii)] |  |  |  |  |  | 11.3 µM |  |  |  |  |  | 156 µM | 
7 | CNC(C)Cc1ccc2c(c1)OCO2 (centres unmarked) [MDMA] |  |  |  |  |  |  |  |  |  |  |  |  | α-2A, percent of control-specific binding (alpha2A receptor): 27%; EC50 (5-HT1A receptor [6]; CHO-K1/5-HT1A/Gα15 cells stimulated with 4 μM forskolin, reduction of intracellular cAMP, read-out: 5-HT1A, EC50): > 1000 µM; HT2C, percent of control-specific binding (5-HT2C receptor): 96%; SERT, percent of control-specific binding ([1]; 10 µM): 46%; HT7, percent of control-specific binding (5-HT7 receptor): 58%; HT1A, percent of control-specific binding (5-HT1A receptor [3]): 68%; DAT, percent of control-specific binding ([4]; 10 μM test ligand, [3H]BTCP, recombinant transporter from CHO cells): 28%; HT2B, percent of control-specific binding (5-HT2B receptor): 85%; MT1, percent of control-specific binding (MT1 receptor): 1%; NET, percent of control-specific binding ([5]; 10 μM test ligand, [3H]nisoxetine, recombinant transporter from CHO cells): 3%
8 | COc1cc(CCN)cc(OC)c1OC [mescaline, 3,4,5 trimethoxyphenethylamine] | 57% |  | 95% | -6% | 38% | 8.5 µM | 65% | -1% | 80% | 6% | -9% | > 1000 µM | 
9 | CCCOc1c(OC)cc(CCN)cc1OC [proscaline] | 40% | 82 µM | 97% | 23% | 5% | 9.4 µM | 71% | -2% | 85% | 3% | -9% |  | 
10 | N[C@@H](Cc1c[nH]c2ccccc12)C(=O)O [tryptophan] | -4% | > 1000 µM | 25% | 1% | 11% | > 1000 µM | 6% | 1% | 0% | -2% | 1% |  | 
